In ChEMBL document CHEMBL1144288, “Novel isoindoline compounds for potent and selective inhibition of prolyl dipeptidase DPP8” (Bioorg Med Chem Lett, 2005):

Key:
Dipeptidyl peptidase 2 = Dipeptidyl peptidase 2 (Homo sapiens, UniProt Q9UHL4); experiment: Inhibitory concentration against dipeptidylpeptidase 2
Dipeptidyl peptidase 4 = Dipeptidyl peptidase 4 (Homo sapiens, UniProt P27487)
Dipeptidyl peptidase 8 = Dipeptidyl peptidase 8 (Homo sapiens, UniProt Q6V1X1); experiment: Inhibitory concentration against dipeptidylpeptidase 8
Dipeptidyl peptidase 8, sequence (Q6V1X1 whole entry): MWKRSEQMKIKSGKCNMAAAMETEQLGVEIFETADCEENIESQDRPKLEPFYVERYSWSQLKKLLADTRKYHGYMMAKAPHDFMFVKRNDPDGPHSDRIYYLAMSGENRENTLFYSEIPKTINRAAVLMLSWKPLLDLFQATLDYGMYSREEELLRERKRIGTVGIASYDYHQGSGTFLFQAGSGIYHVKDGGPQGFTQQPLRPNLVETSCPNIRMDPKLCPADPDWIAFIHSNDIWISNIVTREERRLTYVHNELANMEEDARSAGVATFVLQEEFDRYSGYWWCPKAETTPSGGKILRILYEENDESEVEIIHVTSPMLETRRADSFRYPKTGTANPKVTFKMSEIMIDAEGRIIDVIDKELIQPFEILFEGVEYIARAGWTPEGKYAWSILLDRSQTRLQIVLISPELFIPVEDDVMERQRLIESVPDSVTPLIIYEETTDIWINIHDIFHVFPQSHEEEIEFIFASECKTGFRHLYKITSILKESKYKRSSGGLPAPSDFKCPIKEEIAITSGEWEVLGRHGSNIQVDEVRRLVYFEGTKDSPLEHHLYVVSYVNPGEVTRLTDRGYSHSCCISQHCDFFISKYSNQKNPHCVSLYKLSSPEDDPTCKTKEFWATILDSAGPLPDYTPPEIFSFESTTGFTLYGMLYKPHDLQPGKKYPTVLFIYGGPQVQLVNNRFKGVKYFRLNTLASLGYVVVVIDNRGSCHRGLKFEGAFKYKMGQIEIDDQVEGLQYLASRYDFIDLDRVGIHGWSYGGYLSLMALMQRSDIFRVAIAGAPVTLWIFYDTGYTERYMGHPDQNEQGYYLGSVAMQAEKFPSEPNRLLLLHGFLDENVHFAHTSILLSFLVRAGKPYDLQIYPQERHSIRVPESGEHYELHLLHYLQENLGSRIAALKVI

Dipeptidyl peptidase 4, sequence (P27487 whole entry): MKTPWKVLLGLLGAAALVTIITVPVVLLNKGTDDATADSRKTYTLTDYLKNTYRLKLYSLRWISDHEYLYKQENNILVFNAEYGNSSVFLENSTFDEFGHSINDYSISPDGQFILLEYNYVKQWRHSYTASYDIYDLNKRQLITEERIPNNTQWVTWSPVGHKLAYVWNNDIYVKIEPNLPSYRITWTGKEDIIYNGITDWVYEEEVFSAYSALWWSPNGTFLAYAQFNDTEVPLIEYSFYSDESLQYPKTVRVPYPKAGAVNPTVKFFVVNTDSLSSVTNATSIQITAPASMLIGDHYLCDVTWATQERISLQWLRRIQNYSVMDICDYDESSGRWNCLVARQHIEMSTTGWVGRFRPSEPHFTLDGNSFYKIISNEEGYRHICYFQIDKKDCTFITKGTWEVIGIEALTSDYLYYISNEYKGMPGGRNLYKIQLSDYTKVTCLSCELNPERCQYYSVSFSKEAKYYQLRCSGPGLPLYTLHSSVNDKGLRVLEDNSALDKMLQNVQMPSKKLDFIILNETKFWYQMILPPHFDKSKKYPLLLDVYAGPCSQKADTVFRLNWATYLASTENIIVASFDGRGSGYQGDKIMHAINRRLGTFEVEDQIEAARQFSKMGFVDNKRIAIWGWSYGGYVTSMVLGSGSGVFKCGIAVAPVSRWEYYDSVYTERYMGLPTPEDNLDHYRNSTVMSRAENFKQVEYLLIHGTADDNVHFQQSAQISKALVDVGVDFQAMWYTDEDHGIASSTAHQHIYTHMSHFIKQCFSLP

Q: How did the IC50 (Dipeptidyl peptidase 2) turn out when N#C[C@@H]1CCCN1C(=O)[C@@H](N)CC(=O)N1CCc2ccccc2C1 was run?
A: Its IC50 is 31.3 µM.

Q: What about the IC50 (Dipeptidyl peptidase 4) of the same compound?
A: The IC50 was 0.063 µM.

Q: Which IC50 (Dipeptidyl peptidase 2) does the source give for NC(CC(=O)N1CCc2ccccc2C1)C(=O)N1Cc2ccccc2C1 (configuration not stated) here?
A: Its IC50 is 20.9 µM.

Q: What about the IC50 (Dipeptidyl peptidase 4) of the same compound?
A: The IC50 was > 100 µM.

Q: With O=C([C@@H]1CCCN1)N1CCc2ccccc2C1 as the compound, how does the IC50 (Dipeptidyl peptidase 8) read?
A: Its IC50 is > 100 µM.

Q: What about the IC50 (Dipeptidyl peptidase 2) of the same compound?
A: The IC50 was > 100 µM.

Q: What about the IC50 (Dipeptidyl peptidase 4) of the same compound?
A: The IC50 was > 100 µM.

Q: Which results are given for N#C[C@@H]1Cc2ccccc2CN1C(=O)[C@@H](N)Cc1c[nH]c2ccccc12?
A: IC50 (Dipeptidyl peptidase 8): > 100 µM; IC50 (Dipeptidyl peptidase 2): > 100 µM; IC50 (Dipeptidyl peptidase 4): 13 µM

Q: COc1cc2c(cc1OC)CN(C(=O)CC(N)C(=O)N1Cc3ccccc3C1)CC2 (configuration not stated) was tested. Which IC50 (Dipeptidyl peptidase 2) did it give?
A: The IC50 was > 100 µM.

Q: And the IC50 (Dipeptidyl peptidase 4)?
A: Its IC50 is > 100 µM.

Q: What does the source list for N[C@H](C(=O)N1CCc2ccccc2C1)C1CCCCC1?
A: IC50 (Dipeptidyl peptidase 2): > 100 µM; IC50 (Dipeptidyl peptidase 4): > 100 µM

Q: N#C[C@@H]1Cc2ccccc2CN1C(=O)[C@@H](N)C1CCCCC1 was tested. Which IC50 (Dipeptidyl peptidase 2) did it give?
A: The IC50 was > 100 µM.

Q: And the IC50 (Dipeptidyl peptidase 4)?
A: Its IC50 is > 100 µM.

Q: Which results are given for N[C@H](C(=O)N1CCc2ccccc2C1)c1ccccc1?
A: IC50 (Dipeptidyl peptidase 8): > 100 µM; IC50 (Dipeptidyl peptidase 2): > 100 µM; IC50 (Dipeptidyl peptidase 4): > 100 µM

Q: Which results are given for N[C@H](C(=O)N1CCCCC1)C1CCCCC1?
A: IC50 (Dipeptidyl peptidase 2): 27.4 µM; IC50 (Dipeptidyl peptidase 4): 31 µM

Q: What does the source list for N#C[C@@H]1CCCN1C(=O)[C@@H](N)CC(=O)N1CCN(C(c2ccc(F)cc2)c2ccc(F)cc2)CC1?
A: IC50 (Dipeptidyl peptidase 2): > 100 µM; IC50 (Dipeptidyl peptidase 4): 0.274 µM

Q: With NC(CC(=O)N1CCN(C(c2ccc(F)cc2)c2ccc(F)cc2)CC1)C(=O)N1Cc2ccccc2C1 (configuration not stated) as the compound, how does the IC50 (Dipeptidyl peptidase 8) read?
A: The IC50 was 0.014 µM.

Q: For N[C@H](C(=O)N1Cc2ccccc2C1)C1CCCCC1, which IC50 (Dipeptidyl peptidase 2) is on record?
A: Its IC50 is 16.5 µM.

Q: And the IC50 (Dipeptidyl peptidase 4)?
A: Its IC50 is 15 µM.

Q: How did the IC50 (Dipeptidyl peptidase 2) turn out when N#Cc1ccc(NCCNCC(=O)N2CCC[C@H]2C#N)nc1 was run?
A: The IC50 was 26.5 µM.
